Laboratory results reported in patent publication US7582786B2, “Synthetic catalytic free radical scavengers useful as antioxidants for prevention and therapy of disease” (Eukarion Inc., priority 1996, dated 2009).
Entries after “also recorded” stand apart in the source; their conditions may differ.

How the values were obtained:
[1] = Catalase activity, decomposition of hydrogen peroxide monitored at 240 nm (Example 1); format: biochemical; conditions: Example 1, H2O2 decomposition at 240 nm
Method: Catalase activity was measured using a spectrophotometric method in which the decomposition of hydrogen peroxide is monitored at 240 nm according to the method of Aebi et al. (1984) Methods Enzymol. 105: 121, incorporated herein by reference. One unit of catalase activity is defined as the amount of enzyme (or salen-metal complex) required to decompose 1 μmole of hydrogen peroxide in one minute.

[2] = system: dopaminergic neurons in mouse striatum; assay: 6-OHDA model of neuronal injury in mice (3H-mazindol binding in striatal homogenates); format: in vivo
Method: 6-OHDA in mice. Adult male CFW mice were anesthetized with ketamine and rumpun, and immobilized in a stereotaxic device. 6-OHDA, as the hydrobromide salt, was dissolved in normal saline with 1% ascorbate, and 50 μg was administered in lateral ventricle by means of a 10 μl Hamilton syringe. […] Animals were sacrificed 7 days later, and neuronal pathology was assessed by measuring ^3H-mazindol binding in striatal homogenates.

pigs = assay: Acute lung injury in endotoxemic pigs; format: in vivo, pig
Method: All pigs were pre-treated at T=−18 h with Escherichia coli 0111:B4 LPS (20 μg/kg). Pigs in the RL group (n=4) received no further treatment. […] Lung wet-to-dry weight ratio was determined post-mortem. Lung lipid peroxidation was estimated fluorometrically by measuring thiobarbituric acid reactive products in the lipid fraction of lung parenchymal tissue harvested at T=300 min.

Rat brain slices = assay: Rat brain slice ischemia/reoxygenation EPSP system; format: cell-based; conditions: 50 μM C7
Method: A widely used assay to determine the therapeutic potential of molecules in brain ischemia (stroke) consists of evaluating their ability to prevent irreversible damage induced by an anoxic episode in brain slices maintained under physiological conditions. Rat brain slices were maintained at 35° C. in an interface chamber in an artificial cerebrospinal fluid containing: 124 mM NaCl, 3 mM KCl, 1.25 mM KH2PO4, 3 mM CaCl, 1 mM MgCl2, 26 mM NaHCO3, 10 mM D-glucose, and 2 mM L-ascorbate, continuously gassed with a mixture of O2:CO2 (95:5). The atmosphere of the chamber was also continuously gased with the mixture of O2:CO2 (95:5), except during the-anoxic episode when it was replaced by N2. Axons were electrically stimulated and the evoked excitatory post-synaptic potentials (EPSPs) were recorded using microelectrodes.
The extent of permanent damage can be quantified by measuring both the amplitude (in mV) and the initial slope (in mV/msec) of the EPSP.
After 5 minutes of baseline recording, O2 was replaced by N2 for an average of 5 minutes. O2 was then reintroduced and recording was continued for another 50 minutes. […] In contrast, recovery in untreated brain slices was only about 40% of pre-ischemia levels.
As an additional assessment of efficacy, the percentage of viable slices following repeated ischemic episodes was evaluated. […]

xanthine oxidase = xanthine oxidase (Homo sapiens, UniProt P47989); assay: Control reaction for direct inhibition of xanthine oxidase (urate production at 290 nm); format: biochemical; conditions: 6 and 11 μM C7
Sequence of xanthine oxidase (P47989 whole entry, species assumed): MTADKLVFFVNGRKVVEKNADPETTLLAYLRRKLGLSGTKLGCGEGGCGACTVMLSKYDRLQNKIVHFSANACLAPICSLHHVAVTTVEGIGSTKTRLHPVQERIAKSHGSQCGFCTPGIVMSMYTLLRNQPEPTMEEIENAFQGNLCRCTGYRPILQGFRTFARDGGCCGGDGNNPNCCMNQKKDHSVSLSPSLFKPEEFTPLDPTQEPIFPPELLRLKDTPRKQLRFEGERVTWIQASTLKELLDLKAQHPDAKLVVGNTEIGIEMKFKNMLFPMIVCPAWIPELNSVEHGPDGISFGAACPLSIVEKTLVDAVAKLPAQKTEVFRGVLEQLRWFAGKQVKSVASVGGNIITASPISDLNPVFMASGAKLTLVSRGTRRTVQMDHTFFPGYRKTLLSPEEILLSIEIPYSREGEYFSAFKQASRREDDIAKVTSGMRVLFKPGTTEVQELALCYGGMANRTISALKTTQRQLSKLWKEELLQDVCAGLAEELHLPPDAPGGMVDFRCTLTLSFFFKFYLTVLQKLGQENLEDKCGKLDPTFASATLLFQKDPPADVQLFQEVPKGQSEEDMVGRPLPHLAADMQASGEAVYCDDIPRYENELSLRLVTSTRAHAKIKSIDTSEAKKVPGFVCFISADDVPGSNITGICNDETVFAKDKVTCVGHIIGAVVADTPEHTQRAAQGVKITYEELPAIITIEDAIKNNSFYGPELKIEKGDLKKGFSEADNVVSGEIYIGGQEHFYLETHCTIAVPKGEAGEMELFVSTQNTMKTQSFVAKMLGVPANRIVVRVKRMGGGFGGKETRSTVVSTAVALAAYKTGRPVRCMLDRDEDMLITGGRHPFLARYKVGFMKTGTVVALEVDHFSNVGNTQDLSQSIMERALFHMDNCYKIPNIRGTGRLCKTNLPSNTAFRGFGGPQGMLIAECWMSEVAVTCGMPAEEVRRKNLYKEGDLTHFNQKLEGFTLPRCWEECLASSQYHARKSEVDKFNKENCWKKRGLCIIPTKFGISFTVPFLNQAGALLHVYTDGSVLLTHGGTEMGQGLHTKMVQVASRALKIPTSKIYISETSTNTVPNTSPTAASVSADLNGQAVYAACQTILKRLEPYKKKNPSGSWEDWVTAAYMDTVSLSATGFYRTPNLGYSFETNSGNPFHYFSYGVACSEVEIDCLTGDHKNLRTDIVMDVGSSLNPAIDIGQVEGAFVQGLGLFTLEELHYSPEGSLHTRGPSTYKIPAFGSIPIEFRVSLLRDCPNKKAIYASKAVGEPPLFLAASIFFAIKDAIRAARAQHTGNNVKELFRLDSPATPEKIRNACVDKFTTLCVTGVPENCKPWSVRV
Method: Superoxide dismutase (SOD) activity was assayed by following the inhibition of the reduction of an electron acceptor molecule in the presence of the free-radical generating system xanthine/xanthine oxidase (McCord et al. (1973) Superoxide and Superoxide Dismutase in “Oxidases and Related Redox Systems, vol. I, King et al. eds., University Park press, Baltimore, pp. 51-76). The assay mixture consisted of 50 mM sodium phosphate, pH 7.8, 120 μM xanthine, 0.2 units/ml xanthine oxidase, with acceptor molecule and salen manganese compound, as indicated. Assays were conducted at 27±0.2° C. using a water-jacketed cell holder in a Beckman DU7400 spectrophotometer. In most cases, oxidized cytochrome c, at 0.13 mg/ml, was employed as acceptor and its reduction was monitored spectrophotometrically at 550 nm. In some experiments, nitroblue tetrazolium (NBT), at 80 μM, was substituted for cytochrome c as the acceptor. NBT reduction was also monitored at 550 nm. An estimated extinction coefficient for NBT reduction, 20,800 M^−1cm^−1, determined empirically by exhaustive reduction of NBT in the reaction mixture described above, was employed where indicated. This value agreed well with reported extinction coefficients for reduced tetrazolium dyes. […] Conversion of xanthine to urate was calculated using ε290's of […] for urate and 4050 M^−1cm^−1 for xanthine. […]

MRL/lpr mice = assay: Lifespan of autoimmune MRL/lpr mice; format: in vivo; conditions: 1 mg/mouse intraperitoneally three times per week
Excerpt: MRL/lpr mice develop autoantibodies and numerous autoimmune associated pathologies and die prematurely (mean lifespan ˜150 days). They are considered a mouse model for autoimmune disorders such as lupus. […] Control mice received vehicle injections only or were left untreated.
MRL/lpr mice develop autoantibodies and numerous autoimmune associated pathologies and die prematurely (mean lifespan˜150 days). They are considered a mouse model for autoimmune disorders such as lupus. […] Control mice received vehicle injections only or were left untreated.

mice = assay: Mouse model for delayed hypersensitivity (oxazolone, ear edema); format: in vivo; conditions: topical, 2.5 micrograms C7 per ear
Method: Mice (“Presensitized” and “Presensitized+C7” groups) were presensitized with oxazolone on the abdomen. One group (“Not presensitized”) received only vehicle on the abdomen at this time. After 7 days, each mouse was challenged with the oxazolone hapten on one ear and given vehicle only on the opposite ear. […] The other two groups received an equivalent volume of 90% acetone. Twenty-four hr after challenge, mice were sacrificed and ear edema was assessed by determining the wet weight/dry weight ratio. (Wet weight was determined by weighing the freshly dissected ear and dry weight was determined after lyophilization to a constant weight.)
Mice (“Presensitized” and “Presensitized+C7” groups) were presensitized with oxazolone on the abdomen. One group (“Not presensitized”) received only vehicle on the abdomen at this time. After 7 days, each mouse were challenged with the oxazolone hapten on one ear and given vehicle only on the opposite ear. […] The other two groups received an equivalent volume of 90% acetone. Twenty-four hr after challenge, mice were sacrificed and ear edema was assessed by determining the wet weight/dry weight ratio. (Wet weight was determined by weighing the freshly dissected ear and dry weight was determined after lyophilization to a constant weight.)

[3] = In vitro model for acidosis-induced mucosal injury
[4] = C7 4×66 mg/kg i.p., 6-OHDA 50 μg i.c.v.
[5] = T = 300 min, C7 10 mg/kg bolus at T=60 min then 10 mg/kg-h after LPS

[Cl][Mn]1[O]c2ccccc2C=NCCN=Cc2ccccc2[O]1 [Compound C7]
Catalase Activity [1]: 200 units/mM
mazindol binding, contralateral striatum [2, 4]: complete protection
mazindol binding, ipsilateral striatum [2, 4]: significant reduction
crossing of the blood brain barrier ([2]; concluded from effects of peripheral injections in in vivo models): crosses the blood brain barrier
protection from 6-OHDA-induced degeneration ([2]; mouse, in vivo): protects dopaminergic neurons
% Cdyn, dynamic pulmonary compliance (pigs; [5]): 78 ± 4%
MDA, lung malondialdehyde level (pigs; [5]): 180 ± 27 pmols/mg dry weight
PaO2, arterial oxygenation (pigs; [5]): 148 ± 22 mm Hg
Ppa, mean pulmonary arterial pressure (pigs; [5]): 25 ± 3 mm Hg
W/D, lung wet-to-dry weight ratio (pigs; [5]): 6.4 ± 0.9
protection against effects of endotoxin (pigs; administered 60 min after onset of endotoxemia): protects against many of the deleterious effects of endotoxin
percentage of viable slices following repeated ischemic episodes (Rat brain slices): 70%
effect on xanthine oxidase activity (xanthine oxidase): no effect; also recorded: without affecting
lifespan (MRL/lpr mice): prolongs the life
protection, ear edema (mice): protective
protection against acidosis-induced mucosal injury [3]: protective
